From ChEMBL document CHEMBL1201862, “PubChem BioAssay data set” (2004)
Calls of active or inactive are those of the source.

Experiments:
[1] = biological target: T1, Heat shock factor protein 1 (Mus musculus, UniProt P38532); test: decrease of HSF1-responsive luciferase luminescence – cell-based, NIH3T3, dose retest, confirmation (AID 2382); assay type: functional;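 also: NIH3T3 fibroblasts with HSF1-driven luciferase reporter stressed by proteasome inhibitor MG132; luminescence from HSF1-driven luciferase expression after 8 hours of MG132 stress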
T1 sequence (P38532 whole entry): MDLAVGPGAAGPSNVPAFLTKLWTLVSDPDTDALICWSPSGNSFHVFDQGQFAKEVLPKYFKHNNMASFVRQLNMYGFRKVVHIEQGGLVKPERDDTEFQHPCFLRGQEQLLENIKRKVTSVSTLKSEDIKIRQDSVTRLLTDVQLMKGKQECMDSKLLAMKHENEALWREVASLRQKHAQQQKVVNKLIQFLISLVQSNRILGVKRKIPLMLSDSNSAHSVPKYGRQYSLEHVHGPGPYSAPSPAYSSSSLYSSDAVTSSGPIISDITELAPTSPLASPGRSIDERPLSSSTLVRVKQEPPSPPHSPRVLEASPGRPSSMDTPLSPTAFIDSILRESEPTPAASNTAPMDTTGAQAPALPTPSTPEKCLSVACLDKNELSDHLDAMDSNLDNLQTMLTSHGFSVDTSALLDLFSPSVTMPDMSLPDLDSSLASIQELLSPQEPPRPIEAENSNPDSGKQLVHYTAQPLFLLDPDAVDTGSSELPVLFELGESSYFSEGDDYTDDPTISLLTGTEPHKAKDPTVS

[2] = biological target: T2, Corticotropin-releasing factor receptor 2/Corticotropin-releasing factor-binding protein (Homo sapiens, UniProt P24387+Q13324); test: activators of CRF receptor 2 with binding protein – uHTS hits, confirmation (AID 602473); assay type: functional; details: read-out: EC50_Mean
T2 sequence (Q13324 whole entry): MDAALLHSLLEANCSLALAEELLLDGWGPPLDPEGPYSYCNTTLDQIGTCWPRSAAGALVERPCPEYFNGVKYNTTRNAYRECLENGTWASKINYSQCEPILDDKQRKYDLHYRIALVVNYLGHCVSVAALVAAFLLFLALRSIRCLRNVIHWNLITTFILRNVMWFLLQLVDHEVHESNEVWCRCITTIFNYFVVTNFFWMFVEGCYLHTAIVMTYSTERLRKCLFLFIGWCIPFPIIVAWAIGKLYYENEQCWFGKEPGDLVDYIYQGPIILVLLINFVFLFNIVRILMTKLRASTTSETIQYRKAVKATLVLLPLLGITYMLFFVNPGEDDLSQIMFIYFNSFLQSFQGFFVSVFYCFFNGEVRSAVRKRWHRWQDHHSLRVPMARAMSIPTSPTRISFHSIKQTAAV
T2 sequence (P24387 whole entry): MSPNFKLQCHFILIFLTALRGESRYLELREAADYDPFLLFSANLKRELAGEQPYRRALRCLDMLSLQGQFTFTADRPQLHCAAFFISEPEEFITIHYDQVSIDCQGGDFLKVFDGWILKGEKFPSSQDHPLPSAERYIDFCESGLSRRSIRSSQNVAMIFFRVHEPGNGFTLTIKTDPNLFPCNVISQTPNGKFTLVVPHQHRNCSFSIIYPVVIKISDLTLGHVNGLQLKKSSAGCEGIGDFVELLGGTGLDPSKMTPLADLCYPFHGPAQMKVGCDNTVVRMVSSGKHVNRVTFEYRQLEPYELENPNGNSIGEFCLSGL

[3] = biological target: T2, Corticotropin-releasing factor receptor 2/Corticotropin-releasing factor-binding protein; test: Dose Response confirmation of uHTS hits for small molecule antagonists of the CRF-binding protein and CRF-R2 receptor complex.; assay type: functional; details: read-out: IC50_Mean
[4] = biological target: T3, Cytochrome P450 1A2 (Homo sapiens, UniProt P05177);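 also: PubChem cytochrome P450 panel assay, CYP1A2 panel member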
T3 sequence (P05177 whole entry): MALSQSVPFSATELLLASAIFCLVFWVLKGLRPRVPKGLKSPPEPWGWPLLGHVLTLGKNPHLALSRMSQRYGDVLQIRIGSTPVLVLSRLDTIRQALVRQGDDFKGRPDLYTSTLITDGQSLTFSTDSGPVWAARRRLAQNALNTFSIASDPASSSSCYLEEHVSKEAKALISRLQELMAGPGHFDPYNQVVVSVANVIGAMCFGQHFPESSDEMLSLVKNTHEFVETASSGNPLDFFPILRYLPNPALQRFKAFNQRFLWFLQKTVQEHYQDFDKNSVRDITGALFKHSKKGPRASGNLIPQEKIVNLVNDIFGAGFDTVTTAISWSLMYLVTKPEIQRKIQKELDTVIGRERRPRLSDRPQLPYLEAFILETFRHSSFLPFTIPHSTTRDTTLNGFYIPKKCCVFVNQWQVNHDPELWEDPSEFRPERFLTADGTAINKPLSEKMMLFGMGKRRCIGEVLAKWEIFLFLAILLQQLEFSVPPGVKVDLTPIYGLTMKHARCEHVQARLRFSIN

[5] = biological target: Cytochrome P450 3A4 (Homo sapiens, UniProt P08684);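 also: CYP3A4 tested as one member of a cytochrome P450 panel screen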
[6] = biological target: Cytochrome P450 2C19 (Homo sapiens, UniProt P33261); test: Cytochrome panel assay with activity outcomes. Panel member name: p450-cyp2c19 Compounds with AC50 equal or less than 10 uM are considered active; assay type: functional; details: read-out: AC50
[7] = tested on: H4; test: Luminescence Cell-Based Dose Response HTS to Identify Activators of 5'UTR Stem-Loop Driven Prion Protein mRNA Translation in H4 Neuroglioblastoma Cells. [Related pubchem assays: 1829 (Project Summary), 1814 (Primary HTS)]; assay type: functional; details: Homo sapiens
[8] = biological target: Cytochrome P450 2C9 (Homo sapiens, UniProt P11712)
[9] = biological target: Paired box protein Pax-8 (Homo sapiens, UniProt Q06710); test: PAX8 transcriptional activity inhibition in RMG-I – RMG-I cells, luciferase, cherry-pick, dose response (AID 687027); assay type: functional, cell-based;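 also: luciferase reporter driven by Pax8 target thyroperoxidase promoter measured by SteadyGlo luminescence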
Paired box protein Pax-8, sequence (Q06710 whole entry): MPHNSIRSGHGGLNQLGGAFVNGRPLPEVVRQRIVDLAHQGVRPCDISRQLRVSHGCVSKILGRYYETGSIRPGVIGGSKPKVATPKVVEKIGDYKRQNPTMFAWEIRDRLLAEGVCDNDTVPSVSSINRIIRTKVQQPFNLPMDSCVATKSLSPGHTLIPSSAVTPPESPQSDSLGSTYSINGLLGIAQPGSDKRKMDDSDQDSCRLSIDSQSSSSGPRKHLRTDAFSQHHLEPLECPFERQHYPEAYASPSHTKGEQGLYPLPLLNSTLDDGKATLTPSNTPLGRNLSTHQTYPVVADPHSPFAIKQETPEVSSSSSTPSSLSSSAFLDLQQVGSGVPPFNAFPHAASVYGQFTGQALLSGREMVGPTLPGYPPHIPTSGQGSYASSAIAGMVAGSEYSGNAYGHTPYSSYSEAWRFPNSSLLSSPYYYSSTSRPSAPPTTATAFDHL

Cytochrome P450 3A4, sequence (P08684 whole entry): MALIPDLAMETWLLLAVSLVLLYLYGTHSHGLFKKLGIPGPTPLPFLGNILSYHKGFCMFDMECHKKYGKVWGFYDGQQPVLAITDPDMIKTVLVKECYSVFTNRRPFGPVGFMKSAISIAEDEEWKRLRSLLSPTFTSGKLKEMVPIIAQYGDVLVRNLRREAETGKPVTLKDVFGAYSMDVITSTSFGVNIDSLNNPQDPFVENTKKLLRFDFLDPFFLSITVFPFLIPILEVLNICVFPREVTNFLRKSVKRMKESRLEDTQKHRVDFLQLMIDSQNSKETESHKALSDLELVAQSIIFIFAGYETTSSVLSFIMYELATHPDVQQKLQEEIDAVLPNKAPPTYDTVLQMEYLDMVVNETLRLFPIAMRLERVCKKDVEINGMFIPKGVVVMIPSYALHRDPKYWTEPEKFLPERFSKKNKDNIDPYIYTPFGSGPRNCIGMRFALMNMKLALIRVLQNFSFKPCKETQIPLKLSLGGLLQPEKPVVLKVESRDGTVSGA
Cytochrome P450 2C9, sequence (P11712 whole entry): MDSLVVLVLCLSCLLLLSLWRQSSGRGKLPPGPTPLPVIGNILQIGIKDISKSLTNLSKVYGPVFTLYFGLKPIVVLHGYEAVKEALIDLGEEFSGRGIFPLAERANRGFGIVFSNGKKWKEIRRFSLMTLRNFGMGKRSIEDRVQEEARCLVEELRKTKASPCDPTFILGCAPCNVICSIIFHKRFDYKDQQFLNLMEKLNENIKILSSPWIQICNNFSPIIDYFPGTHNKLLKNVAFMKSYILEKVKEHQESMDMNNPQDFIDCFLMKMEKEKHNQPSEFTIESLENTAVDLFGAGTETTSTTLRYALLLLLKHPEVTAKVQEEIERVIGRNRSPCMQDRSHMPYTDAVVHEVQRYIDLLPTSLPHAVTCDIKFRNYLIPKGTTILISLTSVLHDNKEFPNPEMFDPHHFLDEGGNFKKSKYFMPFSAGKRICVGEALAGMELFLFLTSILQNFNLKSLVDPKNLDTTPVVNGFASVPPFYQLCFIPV
Cytochrome P450 2C19, sequence (P33261 whole entry): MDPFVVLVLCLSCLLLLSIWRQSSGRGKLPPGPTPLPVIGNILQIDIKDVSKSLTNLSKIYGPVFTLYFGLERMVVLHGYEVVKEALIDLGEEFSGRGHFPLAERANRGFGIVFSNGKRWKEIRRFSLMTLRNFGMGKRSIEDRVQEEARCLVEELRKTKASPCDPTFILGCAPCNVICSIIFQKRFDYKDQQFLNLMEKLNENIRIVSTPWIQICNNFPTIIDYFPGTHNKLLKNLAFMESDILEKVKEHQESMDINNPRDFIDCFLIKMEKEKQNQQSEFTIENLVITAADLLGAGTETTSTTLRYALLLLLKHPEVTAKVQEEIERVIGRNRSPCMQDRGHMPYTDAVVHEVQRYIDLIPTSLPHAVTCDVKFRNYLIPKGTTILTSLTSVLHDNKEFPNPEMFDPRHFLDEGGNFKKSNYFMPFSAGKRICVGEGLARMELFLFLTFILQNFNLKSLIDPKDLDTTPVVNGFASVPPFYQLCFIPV

## COc1ccc(Br)cc1CNC(=O)CCN1C(=O)COc2ccccc21
[1]
  EC50: > 195 µM (not active)

## CC1CCc2[nH]c3ccc(C(=O)N(C)CC(=O)Nc4cccc(F)c4)cc3c2C1 (stereo not drawn)
[2]
  EC50: > 53 µM (inactive)
[3]
  IC50: > 47.1 µM (inactive)

## CN(C)c1ncc2nc(-c3cc(F)cc(F)c3)c(=O)n(-c3ccccc3)c2n1
[4]
  AC50: 0.316 µM (inconclusive)

## NN=C(S)Nc1ccccc1Cl
[1]
  EC50: > 195 µM (not active)

## Cc1cc([N+](=O)[O-])ccc1NCc1ccccc1[N+](=O)[O-]
[2]
  EC50: > 53 µM (inactive)
[3]
  IC50: > 47.1 µM (inactive)

## Cc1cc(NC(=O)c2cc(C(C)C)on2)no1
[4]
  AC50: 20 µM (inconclusive)

## Cc1nc2cnc(Nc3ccccc3)nc2n(CCc2ccccc2)c1=O
[4]
  AC50: 2.51 µM (inconclusive)
[5]
  AC50: 10 µM (inconclusive)

## CCC/C=C(\CCC)C(NS(=O)(=O)c1cccc2cccnc12)c1ccc(-c2ccccc2)cc1 (stereo not drawn)
[4]
  AC50: 0.794 µM (inconclusive)
[6]
  AC50: 2.51 µM (inconclusive)

## CCCc1cc2c(n1Cc1cccc(Cl)c1)C(C)C1CN(C(=O)c3ccccc3)C(C)(C(=O)OC)C21 (stereo not drawn)
[4]
  AC50: 31.6 µM (inconclusive)

## Cc1ccc(CNC(=O)/C=C/c2cccs2)cc1
[7]
  EC50: 1.28 µM (active)

## CCCC[C@@H]1C[C@H]1C(NC(=O)c1ccccc1)c1ccc(-c2ccccc2)cc1 (stereo partly drawn)
[4]
  AC50: 0.501 µM (inconclusive)
[8]
  AC50: 2 µM (inconclusive)
[5]
  AC50: 7.94 µM (inconclusive)

## CCC(CC)c1nc(C#N)c(NCc2ccccc2)o1
[1]
  EC50: 107 µM (active)

## COc1cc(NC(S)=NCc2ccco2)cc(OC)c1
[2]
  EC50: > 53 µM (inactive)
[3]
  IC50: > 47.1 µM (inactive)

## COc1ccc(/C=C/C(=O)N(C)CC(=O)Nc2cccc(F)c2)cc1S(=O)(=O)N1CCCCC1
[2]
  EC50: > 53 µM (inactive)
[3]
  IC50: > 47.1 µM (inactive)

## COc1ccc(C(=O)c2c[nH]cc2-c2ccccc2)cc1
[1]
  EC50: > 195 µM (not active)

## CCC(=O)Nc1c2c(nc3c1CCC3)CCCC2
[4]
  AC50: 15.8 µM (inconclusive)

## COc1ccc(CNc2cc([N+](=O)[O-])ccc2OC)cc1
[2]
  EC50: > 53 µM (inactive)
[3]
  IC50: 11 µM (active)

## COc1cccc(-c2ccc3c(c2)[C@@H]2[C@@H](CCN2S(=O)(=O)c2ccccc2C)[C@H](CO)N3C)c1
[9]
  AC50: 10.4 µM (active)

## O=C(Nc1cccc(O)c1)c1cc(-c2ccccc2Cl)on1
[1]
  EC50: > 195 µM (not active)

## Cc1cn(CC(=O)N2CCN(c3ccccn3)CC2)c(=O)[nH]c1=O
[2]
  EC50: > 53 µM (inactive)
[3]
  IC50: > 47.1 µM (inactive)

## COc1cc(C=O)ccc1Oc1cnccn1
[2]
  EC50: > 53 µM (inactive)
[3]
  IC50: > 47.1 µM (inactive)

## O=C(Nc1ccc(F)cc1F)c1cccnc1Oc1cccc(C(F)(F)F)c1
[4]
  AC50: 0.794 µM (inconclusive)
